Test results: patent publication US6440996B1, “Monomeric and dimeric heterocycles, and therapeutic uses thereof” (priority 1998, dated 2002)
Read-outs that look alike come from different tables or passages of the source.

Tests used:
dopamine transporter [1] = biological target: T1, dopamine transporter (Rattus norvegicus, UniProt P23977); experiment: [3H]WIN 35,428 binding to rat striatal membranes / dopamine transporter binding (DAT)
T1 construct: from tissue; P2 synaptosomes for uptake
Procedure: (§1) Determination of inhibitory binding potencies of analogues at dopamine, serotonin, and norepinephrine transporters are carried out using standard receptor binding assays which are known in the art.
A. Dopamine Transporter Binding (DAT)

[2] = Drug discrimination, substitution for amphetamine; type: in vivo; settings: for response rates across test doses: amphetamine discrimination
rats = experiment: Intravenous drug self-administration; type: in vivo; settings: for self-administration responding: i.v., FR10, cocaine 1 mg/kg/infusion, analog 2 0.3-3 mg/kg/infusion, analog 3 0.125-0.5 mg/kg infusion, vs saline extinction
Excerpt: J. Neurosci., 16, 7416-7427.
Rats were initially trained to lever press for food pellets in standard operant boxes. Following lever press training, rats were implanted with polyvinyl chloride catheters into femoral veins under halothane anesthesia (2-3% in medical grade oxygen) and were allowed to recover for an additional 7 days before initiation of i.v. drug self-administration testing. During drug self-administration sessions, food pellets were no longer delivered, and instead intravenous injections of drugs were delivered by way of the catheter.
Following this second extinction test, self-administration of piperidine analog 2 was studied at doses of 1, 3, and 0.3 mg/kg/infusion in that order. Each dose was tested for five days. During all the re-acquisition test days, a priming infusion was given at the start of the session on each day.

Sprague-Dawley rats = experiment: Locomotor activity (distance traveled, stereotypic behavior); type: in vivo
[3] = Drug discrimination, substitution for cocaine and co-administration with cocaine; type: in vivo
serotonin transporter = serotonin transporter (Rattus norvegicus, UniProt P31652); experiment: Serotonin transporter binding (5-HTT)
Procedure: as §1
B. Serotonin Transporter Binding (5-HTT)
Mol. Pharmacol., 39, 339.

[4] = biological target: norepinephrine transporter (Rattus norvegicus, UniProt Q9WTR4); experiment: Norepinephrine transporter binding (NET)
Procedure: as §1
C. Norepinephrine Transporter Binding (NET)
J. Med Chem., 36, 2886-2890.

[5] = biological target: striatal dopamine transporter (Macaca mulatta, UniProt Q7JHP9); experiment: PET evaluation of 11C-labeled isomers
Procedure: The products were purified by HPLC on a C-18 cartridge eluted with MeOH: phosphate/triethylamine buffer, pH 7.2 (60:40).
After passage through a 0.22 μm filter, the sterile products were administered to three Rhesus monkeys and dynamic PET images were acquired over 90 minutes.

dopamine transporter [6] = biological target: T1, dopamine transporter; experiment: Inhibition of high-affinity [3H]dopamine uptake into rat striatal nerve endings (synaptosomes); type: biochemical
Procedure: A. [^3H]Dopamine Uptake Studies
The effect of candidate compounds in antagonizing dopamine high-affinity uptake was determined using a method previously employed. For [^3H]DA uptake, dissected rat striata were homogenized with a Teflon-glass pestle in ice-cold 0.32 M sucrose and centrifuged for 10 min at 1000×g. The supernatant was centrifuged at 17,500×g for 20 min. This P2 synaptosomal pellet was resuspended in 30 volumes of ice-cold modified KRH buffer. An aliquot of the synaptosomal suspension was preincubated with the buffer and drug for 30 min at 37° C., and uptake initiated by the addition of [^3H]dopamine (5 nM, final concentration). After 5 min, uptake was terminated by adding 5 mL of cold buffer containing glucosamine as a substitute for NaCl and then finally by rapid vacuum filtration over GF-C glass fiber filters, followed by washing with two 5 mL volumes of ice-cold, sodium-free buffer. Radioactivity retained on the filters was determined by liquid scintillation spectrometry. […] It is identical to that calculated by subtracting the mean of identical tubes incubated at 0° C.

dopamine transporter [7] = settings: cited from earlier work; for protection from the effect of 10 mM N-ethylmaleimide: 10 μM cocaine, 300 μM dopamine, d-amphetamine
[8] = Table 2, read-out: DAT IC50 (nm)
[9] = rat striatal membranes, Table 1, read-out: IC50 (nM) [3H]WIN 35,428 binding
[10] = Table 2, unit inferred, read-out: Dopamine Uptake
[11] = rat striatal synaptosomes, Table 1, read-out: IC50 (nM) [3H]dopamine uptake

norepinephrine transporter, sequence (Q9WTR4 1-597): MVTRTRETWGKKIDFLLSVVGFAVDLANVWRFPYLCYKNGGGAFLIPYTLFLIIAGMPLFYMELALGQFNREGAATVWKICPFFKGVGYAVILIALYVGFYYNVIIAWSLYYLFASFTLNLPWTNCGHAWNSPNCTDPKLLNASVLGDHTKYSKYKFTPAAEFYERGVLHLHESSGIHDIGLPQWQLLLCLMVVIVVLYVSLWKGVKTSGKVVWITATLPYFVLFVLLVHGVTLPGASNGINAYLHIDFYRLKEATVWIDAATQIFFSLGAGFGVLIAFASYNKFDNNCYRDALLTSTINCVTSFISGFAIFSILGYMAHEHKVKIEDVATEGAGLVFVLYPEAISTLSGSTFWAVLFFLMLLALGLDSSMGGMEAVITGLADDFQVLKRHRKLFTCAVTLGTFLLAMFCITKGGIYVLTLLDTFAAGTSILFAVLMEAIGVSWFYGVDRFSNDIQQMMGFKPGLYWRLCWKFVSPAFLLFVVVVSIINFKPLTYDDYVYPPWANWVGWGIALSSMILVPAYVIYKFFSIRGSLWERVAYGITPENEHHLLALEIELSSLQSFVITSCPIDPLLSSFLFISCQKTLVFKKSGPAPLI
serotonin transporter, sequence (P31652 whole entry): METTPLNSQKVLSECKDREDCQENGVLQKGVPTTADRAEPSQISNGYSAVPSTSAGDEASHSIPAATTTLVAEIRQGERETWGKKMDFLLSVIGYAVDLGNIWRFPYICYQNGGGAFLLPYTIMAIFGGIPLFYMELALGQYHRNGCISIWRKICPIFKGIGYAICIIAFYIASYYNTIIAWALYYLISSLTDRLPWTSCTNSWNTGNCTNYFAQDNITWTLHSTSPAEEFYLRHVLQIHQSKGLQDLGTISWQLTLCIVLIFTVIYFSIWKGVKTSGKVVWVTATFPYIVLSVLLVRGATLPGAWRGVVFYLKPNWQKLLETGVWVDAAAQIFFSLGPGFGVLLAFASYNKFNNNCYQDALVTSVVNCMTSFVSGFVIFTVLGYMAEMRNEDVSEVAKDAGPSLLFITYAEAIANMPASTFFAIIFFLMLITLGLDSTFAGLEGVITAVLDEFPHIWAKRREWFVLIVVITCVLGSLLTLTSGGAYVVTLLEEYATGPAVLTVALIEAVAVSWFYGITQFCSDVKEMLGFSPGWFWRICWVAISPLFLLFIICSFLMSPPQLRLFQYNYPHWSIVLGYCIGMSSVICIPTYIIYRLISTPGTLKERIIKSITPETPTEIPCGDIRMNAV
T1 sequence (P23977 whole entry): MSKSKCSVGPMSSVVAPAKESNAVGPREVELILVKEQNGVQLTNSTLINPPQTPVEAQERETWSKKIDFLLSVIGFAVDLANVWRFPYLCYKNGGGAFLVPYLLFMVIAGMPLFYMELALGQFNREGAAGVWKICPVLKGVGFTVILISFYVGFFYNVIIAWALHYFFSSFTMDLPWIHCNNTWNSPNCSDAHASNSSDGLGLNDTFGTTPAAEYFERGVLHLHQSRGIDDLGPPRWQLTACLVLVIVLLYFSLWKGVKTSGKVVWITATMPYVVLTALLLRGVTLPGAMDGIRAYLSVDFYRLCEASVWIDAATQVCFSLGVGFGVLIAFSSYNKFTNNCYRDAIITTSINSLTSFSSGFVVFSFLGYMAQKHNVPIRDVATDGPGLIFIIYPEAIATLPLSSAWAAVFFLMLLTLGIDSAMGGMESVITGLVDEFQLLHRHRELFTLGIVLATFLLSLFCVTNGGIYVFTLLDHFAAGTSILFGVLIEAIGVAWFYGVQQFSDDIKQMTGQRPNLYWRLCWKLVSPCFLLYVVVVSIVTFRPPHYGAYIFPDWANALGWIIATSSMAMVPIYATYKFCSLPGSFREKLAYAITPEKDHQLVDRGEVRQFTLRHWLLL
striatal dopamine transporter, sequence (Q7JHP9 1-620): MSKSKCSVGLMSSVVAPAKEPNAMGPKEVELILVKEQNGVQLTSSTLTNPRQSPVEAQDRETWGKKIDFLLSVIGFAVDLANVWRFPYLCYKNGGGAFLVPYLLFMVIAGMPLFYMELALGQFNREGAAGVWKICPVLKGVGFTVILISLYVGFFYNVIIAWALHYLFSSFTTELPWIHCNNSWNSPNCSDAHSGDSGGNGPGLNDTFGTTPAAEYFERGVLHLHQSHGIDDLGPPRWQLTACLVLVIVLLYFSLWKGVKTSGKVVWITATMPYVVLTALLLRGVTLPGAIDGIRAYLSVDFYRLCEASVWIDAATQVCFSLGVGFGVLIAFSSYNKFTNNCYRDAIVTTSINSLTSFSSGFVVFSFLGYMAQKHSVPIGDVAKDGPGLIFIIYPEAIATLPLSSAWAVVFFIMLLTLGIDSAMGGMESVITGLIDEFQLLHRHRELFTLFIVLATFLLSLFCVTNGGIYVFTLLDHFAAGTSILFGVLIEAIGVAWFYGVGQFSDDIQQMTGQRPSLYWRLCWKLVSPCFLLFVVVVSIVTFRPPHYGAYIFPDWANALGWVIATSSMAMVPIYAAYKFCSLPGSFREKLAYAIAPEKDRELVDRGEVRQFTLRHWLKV

COC(=O)[C@@H]1CN(C)CC[C@H]1c1ccc(Cl)cc1 (racemic) [Compound 2, (±)-trans-Methyl 4-(4-Chlorophenyl)-1-methylpiperidine-3-carboxylate]
IC50 (dopamine transporter [1]; DAT IC50 (nm), Table 2): 196 nM | IC50 (dopamine transporter [1]; IC50 (nM) [3H]WIN 35,428 binding, rat striatal membranes, Table 1): 197 ± 7.9 nM | response rates across test doses [2]: remained fairly stable | maximum amphetamine-lever responding ([2]; substitution tests): 53% | number of infusions delivered vs saline extinction test (rats; analog 2, all doses tested): not significantly different | self-administration responding (rats): failed to restore | time course of stereotypic response (Sprague-Dawley rats; 90 minutes following the drug injection): persistent at 90 minutes | distance traveled (Sprague-Dawley rats; i.p., cocaine 10 mg/kg, analog 2 3-20 mg/kg, vs saline control): did not alter | stereotypic behavior / stereotypic time (Sprague-Dawley rats; i.p., cocaine 10 mg/kg, analog 2 10 and 20 mg/kg): small, statistically nonsignificant increase | drug choice and response rate performance on co-administration with cocaine ([3]; analog 2 10 mg/kg plus cocaine 1.25 and 5 mg/kg, vs cocaine alone): did not significantly alter | response rates compared with cocaine (10 mg/kg) ([3]; analog 2 5 and 10 mg/kg): substantially lower | maximum cocaine-lever responding ([3]; analog 2 5 and 20 mg/kg): 40%

COC(=O)C1CN(C)CCC1c1cccc2ccccc12 (racemic) [Compound 73, (±)-Methyl 4β-(1-Naphthyl)-1-methylpiperidine-3β-carboxylate]
IC50 (dopamine transporter [1]; [8]): 173 nM | IC50 (serotonin transporter; 5-HTT IC50 (nm), Table 2): 1.31 µM | IC50 ([4]; Table 2, read-out: NET IC50 (nm)): 2.7 µM | melting point: 108 to 109 °C

COC(=O)[C@@H]1CN(C)CC[C@@H]1c1ccc2ccccc2c1 (racemic) [Compound 74, (±)-Methyl 4β-(2-Naphthyl)-1-methylpiperidine-3β-carboxylate]
IC50 (dopamine transporter [1]; DAT IC50 (nm), Table 2): 13 nM | IC50 (serotonin transporter; 5-HTT IC50 (nm), Table 2): 0.107 µM | IC50 [4]: 2.57 µM | melting point: 100 to 101 °C

COC(=O)C1CN(C)CCC1c1ccc(Br)cc1 (single isomer, unassigned; (+)) [Compound 69, (+)-Methyl 4β-(4-Bromophenyl)-1-methylpiperidine-3β-carboxylate]
IC50 (dopamine transporter [1]; DAT IC50 (nm), Table 2): 406 nM | IC50 (serotonin transporter; 5-HTT IC50 (nm), Table 2): 4.13 µM | IC50 [4]: 21.6 µM | melting point: 125 to 126 °C

COC(=O)C1CN(S(=O)(=O)c2ccccc2)CCC1c1ccc(Cl)cc1 (single isomer, unassigned; (-)) [Compound 46, (−)-Methyl 4β-(4-Chlorophenyl)-1-phenylsulfonyl-piperidine-3β-carboxylate]
IC50 (dopamine transporter [1]; DAT IC50 (nm), Table 2): 26100 nM | IC50 [4]: > 10 µM | melting point: 76 to 78 °C

COC(=O)C1CN(CCCc2ccccc2)CCC1c1ccc(Cl)cc1 (single isomer, unassigned; (-)) [Compound 48, (−)-Methyl 4β-(4-Chlorophenyl)-1-(3-phenylpropyl)-piperidine-3β-carboxylate]
IC50 (dopamine transporter [1]; DAT IC50 (nm), Table 2): 157 nM | IC50 (serotonin transporter): 73.2 µM | IC50 [4]: 1.15 µM | melting point: 73 to 75 °C

COC(=O)C1CN(C)CCC1c1ccc(Br)cc1 (single isomer, unassigned; (-)) [Compound 63, (−)-Methyl 4β-(4-Bromophenyl)-1-methylpiperidine-3β-carboxylate]
IC50 (dopamine transporter [1]; DAT IC50 (nm), Table 2): 3 nM | IC50 (serotonin transporter; 5-HTT IC50 (nm), Table 2): 1.1 µM | melting point: 121 to 122 °C

C=Cc1ccc(C2CCN(C)CC2C(=O)OC)cc1 (single isomer, unassigned; (-)) [Compound 64, (−)-Methyl 4β-(4-Vinylphenyl)-1-methylpiperidine-3β-carboxylate]
IC50 (serotonin transporter; 5-HTT IC50 (nm), Table 2): 13.2 µM | IC50 [4]: 65.8 µM | melting point: 68 to 69 °C

COC(=O)C1CN(C)CCC1c1ccc(Cl)cc1 (single isomer, unassigned; isomer 4) [cis isomer, 4-(4-chlorophenyl)-3-carbomethoxy-N-methylpiperidine]
brain accumulation of 11C-labeled tracer (PET) ([5]; dynamic PET over 90 minutes): greater nonspecific accumulation in the cortex

COC(=O)[C@@H]1CN(C)CC[C@@H]1c1ccc(Cl)cc1 [Compound 3, (−)-Methyl 4β-(4-Chlorophenyl)-1-methylpiperidine-3β-carboxylate]
IC50 (dopamine transporter [1]; [8]): 25 nM | IC50 (dopamine transporter [1]; [9]): 24.8 ± 1.6 nM | IC50 (dopamine transporter [6]; [10]): 85 nM | IC50 (dopamine transporter [6]; [11]): 85.2 ± 2.6 nM | IC50 [4]: 1.63 µM | self-administration responding (rats): reliably self-administered

CC(=O)OC[C@@H]1CN(C)CC[C@@H]1c1ccc(Cl)cc1 [Compound 7, (−)-3β-(Acetoxymethyl)-4β-(4-chlorophenyl)-1-methylpiperidine]
IC50 (dopamine transporter [1]; DAT IC50 (nm), Table 2): 10 nM | IC50 (dopamine transporter [1]; [9]): 44.7 ± 10.5 nM | IC50 (dopamine transporter [6]; [10]): 63 nM | IC50 (dopamine transporter [6]; [11]): 62.9 ± 2.7 nM | IC50 [4]: 0.233 µM | melting point: 76 °C

CCN1C(=O)C=CC1=O [N-Ethyhmaleimide]
inhibition of the specific binding of [3H]mazindol (dopamine transporter [7]; background): about 95%

CC(N)Cc1ccccc1 (centres unmarked) [amphetamine, reference compound]
response rates across test doses [2]: remained fairly stable | substitution for the discriminative stimulus effects of amphetamine ([2]; substitution tests): dose-dependent and complete substitution

C[C@H](N)Cc1ccccc1 [d-amphetamine]
protection from the effect of 10 mM N-ethylmaleimide (dopamine transporter [7]): neither 300 μM dopamine nor d-amphetamine afforded any significant protection

NCCc1ccc(O)c(O)c1 [dopamine]
protection from the effect of 10 mM N-ethylmaleimide (dopamine transporter [7]): neither 300 μM dopamine nor d-amphetamine afforded any significant protection

COC(=O)C1CN(C)CCC1c1ccc(Cl)cc1 (stereo not drawn) [trans isomers, 4-(4-chlorophenyl)-3-carbomethoxy-N-methylpiperidine]
striatal activity after unlabeled CFT ([5]; CFT given 60 minutes after injection): selective decrease in the striatal activity
